Test results from patent US20190169597A1, “GENOME EDITING ENHANCERS” (bluebird bio, Inc., priority 2016, published 2019).
Entries after “also recorded” stand apart in the source; their conditions may differ. Where a name gives a salt, the structure may show the parent alone.

Key:
[1] = test system: primary T cells; experiment: Dose response of primary T cell viability and yield; assay type: cell-based, human; details: 24 hours at 30° C. or 37° C.
Description: (§1) T cells were purified, activated and electroporated with mRNA encoding TCRα-targeting megaTAL-Trex2 fusion as described in Example 1. Electroporated cells were cultured for 24 hours at either 30° C. or 37° C. with Tilorone, Aminacrine, Homidium Bromide (Ethidium Bromide) and Harmine. Cells were then washed to remove residual compound and cultured for an additional three days. After the three days of culture, the cells were stained with CD4, CD8 and CD3 and analyzed by flow cytometery as described in Example 1.

[2] = test system: TCRα gene in primary T cells; experiment: Dose response of megaTAL-Trex2 TCRα gene disruption (NHEJ editing efficiency) in primary T cells; assay type: cell-based, human; details: 24 hours at 30° C. or 37° C.
Description: as §1

[3] = test system: BCL11A erythroid enhancer region in primary human CD34+ cells; experiment: HDR in bulk CD34+ cell population with BCL11A megaTAL and AAV donor template; assay type: cell-based; details: aminacrine 1.0 μM for 24 hours
Description: Primary human peripheral blood-derived CD34+ cells were cultured in cytokine-supplemented media for 48 hours. Cells were washed and electroporated with an mRNA encoding a megaTAL specific for the human BCL11A erythroid enhancer region. Cells were then incubated with AAV vector with or without aminacrine at a concentration of 1.0 μM for 24 hours, washed and cultured in cytokine-supplemented media. HDR was analyzed at regular timepoints by flow cytometry to determine BFP fluorescence.

[4] = test system: CCR5 locus in primary human CD34+ cells; experiment: Non-target control: CCR5-specific megaTAL combined with BCL11A-targeting AAV template in CD34+ cells; assay type: cell-based; details: aminacrine 0.3-3.0 μM for 24 hours
Description: (§2) Primary human peripheral blood-derived CD34+ cells were cultured in cytokine-supplemented media for 72 hours. Cells were washed and electroporated with either an mRNA encoding a megaTAL specific for the human BCL11A erythroid enhancer region or a megaTAL targeting the human CCR5 locus. Cells were then incubated with AAV vector with or without aminacrine at concentrations of 0 μM, 0.3 μM, 1.0 μM, and 3.0 μM for 24 hours, washed and cultured in cytokine-supplemented media. HDR was analyzed at regular timepoints by flow cytometry to determine BFP fluorescence.

[5] = test system: BCL11A erythroid enhancer locus in primary human CD34+ cells; experiment: HDR of AAV BFP template at the BCL11A erythroid enhancer with BCL11A megaTAL in CD34+ cells; assay type: cell-based; details: aminacrine 0.3 μM, 1.0 μM, 3.0 μM for 24 hours
Description: Adeno-associated virus (AAV) plasmids containing a promoter, a GFP or BFP reporter transgene and a polyadenylation signal were designed, constructed, and verified. The transgene was flanked by either 1.3 kb and 1.0 kb homology arms to the BCL11A erythroid enhancer locus at DHS58 (Bauer et al., Science. 342(6155): 253-7 (2013)). rAAV is generated by transient transfection of HEK293T cells, as described in Example 3.
as §2

[6] = test system: primary human T cells; experiment: Small molecule screen: cell yield (flow cytometry events in the live gate); details: 10 μM, 24 hours at 37° C., then three more days; number of flow cytometry events in the live gate
Description: Briefly, purified CD3+ primary human T cells were activated with CD3/CD28 magnetic beads and cultured for 48 hours in IL-2 supplemented complete RPMI media prior to bead removal. After bead removal, T cells were washed and electroporated with in vitro transcribed mRNA encoding a T cell receptor alpha (TCRα) targeting megaTAL-Trex2 fusion mRNA. Cells were then distributed into 384-well format and contacted with a library of ˜2000 known drugs, natural products, and other bioactive components (Microsource Discovery System's Spectrum Collection), with each drug at a final concentration of 10 μM. Cells were cultured with the compounds for 24 hours at 37° C. and then washed and cultured for an additional three days. Cells were then stained for CD3, CD4, and CD8 surface markers, and subjected to high-throughput volumetric flow cytometric analysis.
The number of flow cytometry events in the “live” gate of the FSC/SSC profile was used as a measure of cell yield.

[7] = test system: TCRα locus in primary human T cells; experiment: Aminacrine HDR assay: megaTAL-induced HDR of AAV MND-GFP transgene at the TCRα locus; assay type: cell-based; details: for % GFP positive cells: megaTAL +
Text: Adeno-associated virus (AAV) plasmids containing transgene cassettes comprising a promoter, a transgene encoding a fluorescent protein, and a polyadenylation signal were designed and constructed. The integrity of AAV ITR elements was confirmed with XmaI digest. The transgene expression cassette was placed between two homology regions within exon 1 of the TCRα gene to enable targeting by homologous recombination (AAV targeting vector) using a TCRα-targeting megaTAL. The 5′ and 3′ homology regions were ˜1500 bp and ˜1000 bp in length, respectively, and neither homology region contained the complete megaTAL target site. The transgene expression cassette contained a myeloproliferative sarcoma virus enhancer, negative control region deleted, d1587rev primer-binding site substituted (MND) promoter operably linked to a polynucleotide encoding a fluorescent polypeptide, e.g., green fluorescent protein (GFP). The expression cassettes also contain the SV40 late polyadenylation signal.
Recombinant AAV-6 (rAAV) was prepared by transiently co-transfecting HEK 293T cells with one or more plasmids providing the replication, capsid, and adenoviral helper elements necessary. rAAV was purified from the co-transfected HEK 293T cell culture using ultracentrifugation in an iodixanol-based gradient.
MegaTAL-induced homology directed repair (HDR) was evaluated in primary human T cells activated with CD3 and CD28 and cultured in complete media supplemented with IL-2. […] Controls included T cells containing megaTAL or rAAV targeting vector alone. Cells were cultured overnight at 30° C. in the presence or absence of two different doses of aminacrine. Five days post electroporation the frequency of GFP+ T cells was measured by flow cytometry.

[8] = test system: BCL11A locus in primary human hematopoietic stem and progenitor cells; experiment: HDR in methylcellulose colonies derived from CD34+ cells, by flow cytometry; assay type: cell-based; details: samples treated with both megaTAL and rAAV vector
Description: (§3) A potential caveat with using small molecules to enhance gene repair is the impact on hematopoietic stem and progenitor cell survival. The methylceulluose colony forming assay was used to determine the impact of aminacrine treatment on hematopoietic stem and progenitor cell survival in vitro. Human peripheral blood CD34+ cells were cultured in cytokine supplemented media, electroporated with mRNA encoding BCL11A-specific megaTAL and transduced with BCL11A-HDR AAV vector, as described in Example 4.
(§4) Cells were cultured in the presence or absence of aminacrine during the first 24 hours post-electroporation. Following this post-electroporation recovery step, cells were counted and plated into methylcellulose media.
To determine whether treatment with aminacrine could yield elevated HDR rates in methylcellulose colonies derived from primary human hematopoietic stem and progenitor cells, colonies were harvested and analyzed by flow cytometry. […] FIG. 7.

[9] = test system: human peripheral blood CD34+ cells; experiment: Methylcellulose colony forming assay of edited CD34+ cells; assay type: cell-based
Description: as §3, §4
After 14 days in methylcellulose culture, the erythroid burst-forming units (BFU) and hematopoietic colony forming units (CFU) were scored based on frequency and morphology. […] FIG. 6.

[10] = test system: TCRα gene in primary human T cells; experiment: Small molecule screen: megaTAL-mediated disruption of the TCRα gene detected by loss of CD3 cell surface staining; assay type: cell-based; details: 10 μM, 24 hours at 37° C., then three more days; proportion of CD4/CD8+ cells negative for CD3
Description: A small molecule screen (FIG. 1) was performed to identify candidate soluble factors which could modulate the efficiency of genomic editing at the TCR locus in primary human T cells.

Compound | efficiency of TCRα disruption (proportion of CD3-negative cells), in words [2] | Cell Yield [6] | % CD3 negative [10] [%] | further results
Nc1c2ccccc2nc2ccccc12 [Aminacrine, 9-aminoacridine] | Enhance MegaTAL-Mediated Gene Disruption; also recorded: substantially enhanced gene disruption | 13621 | 82.8 | T cell viability and yield, in words [1]: minimal impact on cell viability; HDR frequency at the BCL11A locus (% BFP+ cells) in bulk CD34+ cells, in words [3]: increased HDR frequency; HDR frequency at the BCL11A locus (% BFP+ cells) in bulk CD34+ cells, in words ([3]; listed as aminacrine): increases HDR; Template capture via a non-homology driven NHEJ pathway, in words [4]: not enhanced; proportion of BFP+ cells with CCR5-specific megaTAL and BCL11A-targeting AAV template, in words [4]: did not significantly increase; proportion of BFP+ cells with CCR5-specific megaTAL and BCL11A-targeting AAV template, in words ([4]; listed as aminacrine): not at the non-target CCR5 locus; HDR frequency at the BCL11A locus (% BFP+ cells), in words [5]: concentration-dependent increase in HDR frequency; % GFP+ (frequency of HDR events) ([7]; 10 μM aminacrine following megaTAL transfection, 18% without aminacrine): 36%; % GFP positive cells ([7]; Donor 783, Aminacrine 2 μM, AAV-GFP +): 25%; % GFP positive cells ([7]; Donor 783, Aminacrine 2 μM, AAV-GFP −): 0; % GFP positive cells ([7]; Donor 783, Aminacrine 10 μM, AAV-GFP +): 36%; % GFP positive cells ([7]; Donor 783, Aminacrine 10 μM, AAV-GFP −): 0; % GFP positive cells ([7]; Donor 855, Aminacrine 2 μM, AAV-GFP +): 41%; % GFP positive cells ([7]; Donor 855, Aminacrine 2 μM, AAV-GFP −): 0; % GFP positive cells ([7]; Donor 855, Aminacrine 10 μM, AAV-GFP +): 38%; % GFP positive cells ([7]; Donor 855, Aminacrine 10 μM, AAV-GFP −): 0; frequency of HDR events (% GFP+ cells), in words ([7]; T cells, aminacrine 2 μM and 10 μM overnight at 30° C.): concentration-dependent increase; proportion of cells undergoing HDR in methylcellulose colonies, in words [8]: increased the proportion of cells undergoing HDR; lineage output of BFU and CFU colonies, in words ([9]; 14 days in methylcellulose culture, aminacrine during first 24 hours post-electroporation): comparable lineage output and showed no overt lineage skewing; hematopoietic stem and progenitor cell survival, in words ([9]; methylcellulose colony forming assay): does not Adversely Affect
COc1cccc2c1C(=O)c1c(O)c3c(c(O)c1C2=O)C[C@@](O)(C(C)=O)C[C@@H]3O[C@H]1C[C@H](N)[C@H](O)[C@H](C)O1 [Daunorubicin] | – | 35 | 73.3 | –
CCN(CC)CCNc1ccc(CO)c2sc3ccccc3c(=O)c12 [Hycanthone] | – | 10012 | 74.1 | –
CCN(CC)CCOc1ccc2c(c1)C(=O)c1cc(OCCN(CC)CC)ccc1-2 [Tilorone] | Enhance MegaTAL-Mediated Gene Disruption | 310 | 86.8 | –
CC[n+]1c(-c2ccccc2)c2cc(N)ccc2c2ccc(N)cc21 [Homidium Bromide] | Enhance MegaTAL-Mediated Gene Disruption | 1023 | 80.3 | –
COc1ccc2c(c1)[nH]c1c(C)nccc12 [Harmine] | Enhance MegaTAL-Mediated Gene Disruption | 9581 | 75.1 | –
OC[C@H]1O[C@@H](n2cnc3c(NCc4ccco4)ncnc32)[C@H](O)[C@@H]1O [Kinetin Riboside] | – | 1668 | 70.8 | –
C[n+]1cc2c3c(ccc2c2ccc4cc5c(cc4c21)OCO5)OCO3 [Sanguinarine Sulfate] | – | 2346 | 71.1 | –
C[C@@H]1C[C@@H]([C@H](O)CC2CC(=O)NC(=O)C2)C(=O)[C@@H](C)C1 [Cyclohexamide] | – | 4166 | 68.7 | –
CCOc1ccc2nc3cc(N)ccc3c(N)c2c1 [Ethacridine Lactate] | – | 14179 | 70.4 | –
